Reference: patent publication US4490393A, “Thiazolylurea derivatives, a process for preparing same and a pharmaceutical composition containing same” (Mitsui Toatsu Kagaki Kabushiki Kaisha, priority 1981, dated 1984)
Counter-ions that a name gives are not always drawn.

Test system: delayed hypersensitivity induced by picryl chloride
Assay: Reinforcement Test of Delayed Hypersensitivity (Test Example 1)
Assay type: in vivo, ICR male mice
Conditions: ICR mice, oral 50 mg per Kg simultaneously with sensitization; 24 hours after challenging; average of both pinnae of eight mice; * P<0.05, ** P<0.01 vs control
Text: The delayed hypersensitivity induced on a mouse when picryl chloride(2-chloro-1,3,5-trinitrobenzene) is coated on the skin of the mouse is known as a typical cellular immunity.
This test system was used for the reinforcement tests of the delayed hypersensitivity.
Groups of eight ICR male mice, each having a body weight of about 30 g or so, were used for the test.
Sensitization was effected by coating a 3% solution of picryl chloride in a 4/1 mixture of olive oil and acetone on the shaved abdomen of each of the mice.
Simultaneously with the sensitization, a solution or suspension of a compound of the present invention dissolved or suspended in a 0.2% solution of carboxymethylcellulose in a physiological saline was orally administered to the mouse at a dose of 50 mg per Kg of its body weight. To each mouse of a control group, was similarly administered a 0.2% carboxymethylcellulose solution in a physiological saline.
The delayed hypersensitivity was induced 7 days after the sensitization by pinching each of the pinnae of each mouse with a pair of forceps whose tip portions were wrapped with a felt impregnated with a 1% solution of picryl chloride in olive oil and coating the pinnae with the solution. The thickness of each pinna was measured before the challenging and 24 hours after the challenging and the ratio of increase of the thickness (average value of both of the pinnae of the eight mice) is shown in Table 1.
For comparison, a similar test was carried out using Levamisole hydrochloride. The results thereof are also shown.
F.t tests were carried out on the thus-obtained test results.

Row | SMILES | Ratio of Increase of Pinna Thickness [%]
1 | CSc1sc(NC(=O)Nc2nc(-c3ccccc3)c(SC)s2)nc1-c1ccccc1 [drawing 11] | 29.0
2 | Cc1cc(NC(=O)Nc2nc(-c3ccccc3)cs2)no1 [drawing 12] | 37.8
3 | O=C(Nc1nc(-c2ccccc2)cs1)Nc1nc(-c2ccccc2)cs1 [drawing 8] | 37.5
4 | COc1ccc(-c2csc(NC(=O)Nc3nc(-c4ccc(OC)cc4)cs3)n2)cc1 [drawing 10] | 31.7
5 | O=C(Nc1ccccn1)Nc1nc(-c2ccccc2)cs1 [drawing 13] | 25.4
6 | Cc1ccc(-c2csc(NC(=O)Nc3nc(-c4ccc(C)cc4)cs3)n2)cc1 [drawing 9] | 36.1
7 | c1ccc([C@H]2CN3CCSC3=N2)cc1 [Levamisole.HCl, Levamisole hydrochloride, reference compound] | 31.2

Test system: adjuvant arthritis caused by the injection of a Mycobacterium tuberculosis adjuvant
Assay: Adjuvant Arthritis Test (Test Example 2)
Assay type: in vivo, SD male rats
Conditions: SD rats, subcutaneous 5 mg per Kg, 9 times; average value from 16th to 20th days; left hind leg; * P<0.05, ** P<0.01 vs control
Text: The adjuvant arthritis in rats caused by the injection of a Mycobacterium tuberculosis adjuvant is often utilized for a model test of chronic rheumatoid arthritis in human.
The mechanism of manifestation of this disease has not completely been elucidated, but it is known that cellular immunity plays an important role. The immuno-modulating activity of the compounds of the present invention was investigated in accordance with this known adjuvant arthritis test.
8-Week-old SD male rats were used for the test. In 0.1 ml of fluid paraffin, 0.4 mg of dry dead cells of Mycobacterium tuberculosis were suspended, and the suspension was injected under the heel skin of the right hind leg of each rat. Each of the compounds of the present invention was subcutaneously administered 9 times in total before and after the injection of the adjuvant. Each of the compounds of the present invention was dissolved or suspended in a 0.2% solution of carboxymethylcellulose in physiological saline and administered to each rat at a dose of 5 mg per Kg of the body weight. The swollen volume of the left hind leg was measured during the period of from the day of injection to the day of completion of the test, and the swelling ratio was calculated. For comparison, a similar test was conducted using Levamisole hydrochloride. F.t tests were carried out on the test results obtained.

Row | SMILES | Swell suppression ratio to control group [%]
8 | Cc1ccc(-c2csc(NC(=O)Nc3nc(-c4ccc(C)cc4)cs3)n2)cc1 [drawing 15] | 29.3
9 | O=C(Nc1ccccn1)Nc1nc(-c2ccccc2)cs1 [drawing 19] | 34.6
10 | Cc1cc(NC(=O)Nc2nc(-c3ccccc3)cs2)no1 [drawing 18] | 26.6
11 | CSc1sc(NC(=O)Nc2nc(-c3ccccc3)c(SC)s2)nc1-c1ccccc1 [drawing 17] | 28.8
12 | O=C(Nc1nc(-c2ccccc2)cs1)Nc1nc(-c2ccccc2)cs1 [drawing 14] | 35.7
13 | c1ccc([C@H]2CN3CCSC3=N2)cc1 [Levamisole.HCl, Levamisole hydrochloride, reference compound] | 19.8
14 | COc1ccc(-c2csc(NC(=O)Nc3nc(-c4ccc(OC)cc4)cs3)n2)cc1 [drawing 16] | 37.5

Test system: ddY male mice
Assay: Acute Toxicity Test through Oral Administration (Test Example 3)
Assay type: in vivo
Conditions: observed for 7 days
Text: To each of a group of five ddY male mice, was orally administered a medicine dissolved or suspended in physiological saline.

Row | SMILES | estimated LD50 [mg/kg]
15 | c1ccc([C@H]2CN3CCSC3=N2)cc1 [Levamisole.HCl, Levamisole hydrochloride, reference compound] | 200 to 300
